Ends that are not written are not given here.

What all share (assay type): in vivo, rat
Test [1] concerns middle cerebral artery occlusion (MCAO) in adult rats. The test is described as follows: MCAO: brain edema of the injured hemisphere. The note with it: Arginine 9-mer-conjugated peptides; intravenous 1 mg/kg; 48 hours after MCAO; relative to control. The method, then:
(§1) In order to examine the effects of the peptide therapeutics described herein, a thromboembolic model of middle cerebral artery occlusion that closely mimics human ischemic brain stroke was used: a clotted segment of blood is injected into the origin of the middle cerebral artery to block blood flow in the corresponding vascular territory of the lateral cerebrum (Wang, Yang et al. 2001).
Following deep isoflurane anesthesia via a nose-cone, fur was shaved from the ventral aspect of the neck. The shaved skin was cleaned twice with alternating applications of Proviodine (iodine detergent solution) and 70% ethanol. Following a final application of Proviodine, the surgical field was draped and a midline incision made in the ventral skin and fascia of the neck. Under an operating microscope, the right common carotid artery (CCA), the right external carotid artery […], and the right internal carotid artery […] were carefully isolated and separated from the adjacent vagus nerve. […]
(§2) 48 hours after MCA occlusion isoflurane anesthetized rats were euthanized by decapitation. […] Infarct volumes were calculated from scanned images of the coronal surfaces of brain slices, using the following formula: Infarct volume=(volume of uninjured hemisphere−(volume of injured hemisphere−measured infarct volume))/volume of uninjured hemisphere)×100. […]

Test [2] concerns axotomized retinal ganglion cells (RGCs). The test can be described thus: Optic nerve transection (axotomy): RGC survival at 14 days. The method, then:
Optic nerve transection was performed as previously described (Koeberle and Ball 1998; Koeberle and Bahr 2008; Koeberle, Wang et al. 2010; Magharious, D'Onofrio et al. 2011; Magharious, D'Onofrio et al. 2011; Monnier, D'Onofrio et al. 2011). Animals were placed in a stereotaxic frame and anesthetized with Isoflurane (2%; 0.8 L/min oxygen flow rate) delivered through a gas anesthesia mask. Lidocaine eye drops were used to anesthetize the cornea and ophthalmic eye ointment was applied to the cornea to prevent desiccation during surgery. […] In order to allow access to the optic nerve and surrounding dura mater sheath, the eye was rotated laterally by applying traction to the extraocular muscles. The dural sheath surrounding the optic nerve was cut longitudinally, to avoid damaging blood vessels supplying the retina. The optic nerve was gently lifted from the meningeal sheath and transected within 2 mm of the back of the eye. In order to retrogradely label RGCs, gelfoam soaked in 2% Fluorogold (Sigma) was placed over the transected optic nerve stump. The orbital contents were returned to their original location and the initial incision was closed. The optic nerve crush procedure was performed using a similar approach; however, the optic nerve was crushed using fine self-closing forceps for 6 seconds as previously described (Magharious, D'Onofrio et al. 2011; Monnier, D'Onofrio et al. 2011). The orbital contents were then similarly returned to their original location and the initial incision was closed. Following surgery, rats were placed in a recovery cage under a heat lamp and given Ketoprofen to ease post-surgical recovery.
The procedures for intraocular and optic nerve injections have been previously described (Koeberle and Ball 1998; Koeberle and Bahr 2008; Koeberle, Wang et al. 2010; Magharious, D'Onofrio et al. 2011; Magharious, D'Onofrio et al. 2011; Monnier, D'Onofrio et al. 2011). Animals received intraocular injections of each peptide at 3 and 8 days postaxotomy, prior to the onset of RGC apoptosis which occurs at 4-5 days after axotomy. Animals were placed in a stereotaxic frame and anesthetized with isoflurane, delivered through a gas anesthetic mask. The cornea was anesthetized using Alcaine eye drops (Alcon) prior to intraocular injections. A pulled glass micropipette attached to a 10 μl Hamilton syringe via a hydraulic coupling through PEEK tubing was used to deliver 4 μl of a peptide solution (10 mg/ml) into the vitreous chamber of the eye, posterior to the limbus. Care was taken to prevent damage to the lens or anterior structures of the eye. The pipette was held in place for 5 seconds after injection and slowly withdrawn from the eye to prevent reflux. Injections were performed using a surgical microscope in order to visualize pipette entry into the vitreous chamber and confirm delivery of the injected solution.
To directly target RGCs, peptide solutions were injected into the transected optic nerve stump using a 10 microliter Hamilton syringe. A total of 5 microliters of peptide suspension (10 mg/ml) were injected. The majority of the injected fluid will reflux out of the optic nerve during this procedure, so the remaining pool of peptide suspension is left in place when returning the orbital contents to their original positions.
For intraperitoneal injections, 1 ml of saline containing 0.5 mg of dissolved peptide was delivered via a 25 gauge needle attached to a 5 ml syringe, following rapid anesthesia with isoflurane to incapacitate the animal.
For eye drop application of C-terminal peptides, animals were sedated with isoflurane and placed in a stereotaxic frame, in order to reduce the blink reflex. Twenty-five microliters of a peptide suspension (1 mg/ml) was delivered to the surface of the cornea using a micropipetter with a sterile micropipette tip. Eye drops were delivered once per day, on day 1, 2, 3, 4, 5, 6, and day 7 after axotomy. […]

In test [3] the test system is middle cerebral artery occlusion (MCAO) in adult rats. The test is described as follows: MCAO: neurological deficits (modified Bederson scoring system). The note with it: Arginine 9-mer-conjugated peptides; intravenous 1 mg/kg; scored 8, 24 and 48 hours after MCAO; relative to control. The method, then: as §1
(§3) Following deep isoflurane anesthesia via a nose-cone, fur was shaved from the ventral aspect of the neck. The shaved skin was cleaned twice with alternating applications of Proviodine (iodine detergent solution) and 70% ethanol. Following a final application of Proviodine, the surgical field was draped and a midline incision made in the ventral skin and fascia of the neck. Under an operating microscope, the right common carotid artery (CCA), the right external carotid artery […], and the right internal carotid artery […] were carefully isolated and separated from the adjacent vagus nerve. A 6-0 silk suture was loosely tied at the origin of the ECA, and another suture was used to ligate the ECA distally. A sterile modified PE 10 catheter was introduced into the lumen of the right ECA via a small puncture. Ten microliters of blood was withdrawn into the catheter and retained for 15 minutes to allow formation of a clot. The fresh autologous pre-formed clot was used for MCA occlusion. The right CCA and the right ICA were temporarily clamped using microvascular clips. The PE 50 catheter containing a 20 mm long fibrin rich clot was attached to 100 μl Hamilton syringe and introduced into the lumen of the external carotid artery via a small incision. The suture around the origin of the external carotid artery was tightened around the intraluminal catheter to prevent bleeding, and the microvascular clip on the internal carotid artery was removed. The catheter was gently advanced from the ECA into the lumen of the ICA and upwards to the origin of the middle cerebral artery (a total of 17 mm in distance from the bifurcation of the CCA). At this point, the end of the catheter is 1-2 mm away from the origin of the middle cerebral artery. Over 10 seconds, the clot (3.5 μl volume) was gently injected together with 5 μl of sterile saline within the catheter. The catheter was removed 5 minutes after injection, and the right ECA was ligated at its origin. Body temperature was maintained at 37° C. with a heating pad for the duration of surgery, after which the surgical field was closed with 4-0 silk sutures. Subcutaneous injections of Buprenorphine (0.05 mg/kg) were administered to minimize post-surgical discomfort. […]
Neurological deficits were recorded at 8, 24 and 48 hours after ischemic injury. Neurological deficits were determined using a modified Bederson scoring system. […]

For test [4] the test system is unchanged. The test can be described thus: Thromboembolic middle cerebral artery occlusion (MCAO): brain infarct volume (TTC staining). The note with it: Arginine 9-mer-conjugated peptides; intravenous (tail-vein) 1 mg/kg; 48 hours after MCAO; relative to control. Here is the method:
as §1
as §3, with “origin.” for “origin. Body temperature was maintained at 37° C. with a heating pad for the duration of surgery, after which the surgical field was closed with 4-0 silk sutures. Subcutaneous injections of Buprenorphine (0.05 mg/kg) were administered to minimize post-surgical discomfort.”
as §2

Where [5] appears, read: Arginine 9-mer (R9)-conjugated peptides, eye drops (1 mg/ml, 25 microliters) once per day, days 1-7 after axotomy, 14 days after axotomy.

Consider “Kv2.1: R9-conjugated Kv2.1 C-terminal peptide HGSTRDQSI (SEQ ID NO:2) (also: R9 conjugated, site not given here; listed as Homo sapiens)”, for which the “brain edema (swelling)” value in test [1] is reported as “significantly reduced brain edema”. Also, the “RGC survival relative to control” value in test [2] (setting [5]) is “significantly enhanced RGC survival”. For the same substance, the “neurological deficits (Bederson score)” value in test [3] is “significantly reduced neurological deficits”. For the same substance, the brain infarct volume entry in test [4] was “significantly reduced”.

For the substance “PTEN: R9 (RRRRRRRRR)-conjugated rat PTEN phosphatase C-terminal peptide DQHSQITKV (SEQ ID NO:1) (RRRRRRRRRDQHSQITKV)”, in test [2] (setting [5]), the “RGC survival relative to control” value was “significantly enhanced RGC survival”. For the same substance, in test [3], the “neurological deficits (Bederson score)” value is reported as “significantly reduced neurological deficits”. Besides, in test [4], the brain infarct volume result is “significantly reduced”.

Turning to “hPTEN: R9-conjugated human PTEN phosphatase C-terminal peptide DQHTQITKV (SEQ ID NO:9)”, the “RGC survival relative to control” value in test [2] (setting [5]) is listed as “significantly enhanced RGC survival”. Also, in test [3], the “neurological deficits (Bederson score)” value was “significantly reduced neurological deficits”. For the same substance, the brain infarct volume result in test [4] was “significantly reduced”.

On to “iNOS: R9-conjugated iNOS C-terminal peptide LEEPKGTRL (SEQ ID NO:8), MCAO tests (also: R9 conjugated, site not given here; listed as Homo sapiens)”, for which, in test [1], the “brain edema (swelling)” value was “significantly reduced brain edema”. In addition, in test [2] (14 days postaxotomy, TAT-conjugated peptide, intraocular injection 10 mg/ml at 3 and 8 days), the “increase in RGC survival compared to controls” value is reported as 2 fold. Further, the “RGC survival relative to control” value in test [2] (14 days postaxotomy, TAT-conjugated peptide, intraperitoneal (IP) injections, 500 μg per injection) is reported as “little or no effect”; in test [2] (14 days postaxotomy, TAT-conjugated peptide, nerve injection) it was “little or no effect”. For the same substance, in test [3], the “neurological deficits (Bederson score)” value was “significantly reduced neurological deficits”. Besides, the brain infarct volume result in test [4] is recorded as “significantly reduced”.

These data come from patent publication US10059742B2, “Peptides and methods and uses thereof for preventing retinal disorders” (priority 2012, dated 2018).
